Test results published in patent publication EP4650362A1, “NEUROPROTECTIVE PSD-95 POLYPEPTIDE INHIBITOR AND USE THEREOF” (Beijing Tuo Jie Biopharmaceutical Co. Ltd., priority 2023, dated 2024).
Several values for one entry are separate records, joined by “and”; a condition that tells them apart may be missing. Identical values can stand only once.

What was measured:
[1] = plasma stability test, rat plasma; type: in vitro ADME; conditions: 2 µM (test control)
Method: (§1) This test example assessed the in vitro stability of polypeptide compounds in rat and human plasma, and is divided into two parts: 1) the stability of the individual polypeptide compounds in rat and human plasma; and 2) the stability of the polypeptide compounds in rat and human plasma when the polypeptide compounds are administered simultaneously with alteplase (rt-PA).
(§2) Solution preparation: An appropriate amount of a test polypeptide compound was weighed out and dissolved in an appropriate amount of 1× PBS to form a 1 mM test solution. NA-1 and NoNO42 were used as positive drugs, propantheline bromide was used as a human plasma test control, and lovastatin was used as a rat plasma test control.
(§3) Plasma stability test: 12.5 µL of the 1 mM test solution was added to a 495 µL pre-incubated plasma sample. The prepared plasma sample was added to centrifuge tubes of different incubation times (0 min, 10 min, 20 min, 30 min, 60 min, and 120 min) (50 µL/tube), and the tubes were then incubated in a water bath at 37 °C with shaking at 60 rpm. For each incubation time, two parallel samples were set. Subsequently, 200 µL of stop solution was added to stop the incubation, and the mixtures were vortexed for 5 min. Then the mixtures were centrifuged at 10,000 rpm at 4 °C for 10 min to remove the protein in the sample, and 70 µL of the supernatant was transferred to a new 96-well plate (70 µL of water was added to each well beforehand) and well mixed.
(§4) The remaining compound content at each time point was determined by LC-MS/MS, and the relative remaining compound contents at the other time points were calculated with the content at 0 min as a standard (100%).
(§5) Sample pretreatment: A 30 µL plasma sample was taken and added to 120 µL of a 5% solution of formic acid in methanol containing 1 ng/mL internal standard (verapamil). The mixture was vortexed for 5 min and centrifuged at low temperature at 10,000 rpm for 10 min. 70 µL of the supernatant was taken, and 70 µL of a 0.1% aqueous solution of formic acid was added and well mixed, and the mixture was injected into an LC-MS system for analysis.
(§6) LC-MS analysis: (1) Chromatographic conditions: mobile phase A: 0.1% formic acid in water; mobile phase B: 0.1% formic acid in acetonitrile; flow rate: 0.5 mL/min; injection volume: 10 µL; chromatography column: nanomicro Unisil C18aq (4.6 mm × 150 mm, 5 µm); column temperature: 40 °C. (2) Mass-spectrometric conditions: The mass spectrometry analysis used an electrospray ionization (ESI) source, a positive ion analysis mode, and a multi-reaction monitoring (MRM) scan mode. The experimental results are shown in Table 4-1, Table 4-2, FIG. 2A, FIG. 2B, FIG. 2C, and FIG. 2D. Table 4-1. The plasma stability of the polypeptide compound

[2] = plasma stability test, human plasma; type: in vitro ADME; conditions: 2 µM (test control)
Method: as §1, §2, §3, §4, §5, §6

Biotin-PDZ2 (human) [3] = experiment: binding ELISA; ratio of EC50 on Biotin-PDZ3 to EC50 on Biotin-PDZ2
[4] = biological target: human PSD95-PDZ2 (the tag was removed by TEV enzyme) (human) (UniProt P78352); experiment: competitive ELISA; NA-1 reference value printed with compound 22; competitor Biotin-NA-1 at 0.3 µM
Sequence of human PSD95-PDZ2 (the tag was removed by TEV enzyme) (human) (P78352 155-249 limits assumed): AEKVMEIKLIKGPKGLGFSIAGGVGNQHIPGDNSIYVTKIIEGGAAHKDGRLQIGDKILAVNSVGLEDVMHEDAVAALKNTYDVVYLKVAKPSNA

[5] = biological target: human PSD95-PDZ2 (the tag was removed by TEV enzyme) (human) (UniProt P78352); experiment: competitive ELISA; NA-1 reference value printed with compound 16; competitor Biotin-NA-1 at 0.3 µM
[6] = biological target: human PSD95-PDZ2 (the tag was removed by TEV enzyme) (human) (UniProt P78352); experiment: competitive ELISA; NA-1 reference value printed with compound 15; competitor Biotin-NA-1 at 0.3 µM
Biotin-PDZ2 (human) [7] = experiment: binding ELISA; peptide coated at 2 µM, Biotin-PDZ2 titrated
[8] = biological target: human PSD95-PDZ2 (the tag was removed by TEV enzyme) (human) (UniProt P78352); experiment: competitive ELISA; NA-1 reference value printed with compound 17; competitor Biotin-NA-1 at 0.3 µM
PDZ2 = conditions: Science, 2002, 298:846-50; cited from earlier work

## CC[C@H](C)C(=O)O[C@H]1C[C@@H](C)C=C2C=C[C@H](C)[C@H](CC[C@@H]3C[C@@H](O)CC(=O)O3)[C@H]21 [Lovastatin]
[1]; 0min (standard 100%)
  Relative remaining compound content (%): 100.0%
[1]; 10min
  Relative remaining compound content (%): 8.5% and 9.6%
[1]; 20min
  Relative remaining compound content (%): 1.8% and 2.1%
[1]; 30min
  Relative remaining compound content (%): 0.7% and 0.9%

## CC(C)[N+](C)(CCOC(=O)C1c2ccccc2Oc2ccccc21)C(C)C [Propantheline bromide]
[2]; 0min (standard 100%)
  Relative remaining compound content (%): 100.0%
[2]; 10min
  Relative remaining compound content (%): 80.2% and 84.0%
[2]; 20min
  Relative remaining compound content (%): 71.5% and 66.8%
[2]; 30min
  Relative remaining compound content (%): 63.4% and 53.4%
[2]; 60min
  Relative remaining compound content (%): 42.7% and 26.4%
[2]; 120min
  Relative remaining compound content (%): 10.9% and 7.2%

## NA-1 (peptide)
Biotin-PDZ2 (human) [3]
  Specificity for PDZ2 (PDZ3/PDZ2): > 10000
[4]
  IC50: 517 nM
[5]
  IC50: 872 nM
[6]
  IC50: 872 nM
Biotin-PDZ2 (human) [7]
  EC50: 83 nM
[8]
  IC50: 872 nM

## YGRKKRRQRRRKLSSIEADA (source 1..20: note = NA-1(ADA)) [negative control, mutant of NA-1 obtained by mutating the amino acids at positions 0 and -2 into Ala]
PDZ2
  ability to bind to PDZ2: no ability to bind to PDZ2
